Results from article PMC10287695, “Non-covalent inhibitors of thioredoxin glutathione reductase with schistosomicidal activity in vivo” (Nature Communications, 2023).
“And” between values parts separate entries of the source, which are not always exact repeats. Identical values can stand only once. “Also recorded” adds a separate entry of the source. Like-named read-outs stand apart in the source and are kept apart here.

Legend:
[1] = Pharmacokinetics, oral gavage; settings: for plasma concentration, individual animals (Animal 1, Animal 2) / plasma concentration: listed as 1 (8VP101); for plasma concentration, individual animals (Animal 1, Animal 2) / concentration at 30 min / concentration at 60 min / concentration at 120 min / concentration at 0.5 h / concentration at 1 h / concentration at 2 h / plasma concentration: 200 mg/kg; for concentration at 30 min / concentration at 60 min / concentration at 120 min / concentration at 0.5 h / concentration at 1 h / concentration at 2 h: female, Swiss Webster, mouse, plasma, po
Protocol: Tween 80 and saline were then added to the DMSO solution in that order. Final solution was 10% DMSO:10% Tween 80:80% saline.
Swiss Webster female mice were purchased from Charles River Laboratories (Wilmington, MA, USA). […] All the mice were weighed and gavaged orally at 200 mg/kg body weight with freshly prepared 2. Blood was collected by submandibular puncture at 0, 0.25, 0.5, 1, and 2 h.
Samples were deproteinized with 150 µl of internal standard solution. This mixture was vortexed to mix properly and centrifuged at 13000 × g for 30 min. 160 µl of the supernatant was transferred to another set of tubes and dried using a nitrogen evaporator. Samples were reconstituted in 100 µl of methanol, vortexed and centrifuged at 13000 × g for 20 min. 30 µl of supernatant was transferred to autosampler vials.
Experiments were carried out on ThermoFisher Scientific Vanquish high-performance liquid chromatography connected to ThermoFisher Scientific TSQ Quantis – triple quadrupole mass spectrometer. The analyte molecules were separated on Phenomenex kinetex C18 column 100 Å (2.6 μm, 50 × 3 mm) with the mobile phase composed of Water/0.1% formic acid (A) and Acetonitrile (B) at the flow rate of 0.5 ml/min with the column temperature maintained at 40 °C and the sample of injection was 5 µl.
Quantification was performed using electrospray in the positive mode with the spray voltage of 3500 V. Sheath gas (Arb) 20, Auxiliary gas (Arb) 8 and Sweep gas (Arb) 5.7.

[2] = Stability of compound under biochemical assay conditions with recombinant TGR (LC-MS); format: physicochemical; settings: with or without NADPH
Protocol: TGR assay solutions (1 ml each) were prepared as described in the main manuscript. […] Each of the reaction mixtures were terminated by the addition of 250 µl of ethyl acetate, extracted with 1 ml of methyl tert-butyl ether. The organic layer was evaporated in vacuo, and the residue was redissolved in 0.5 mL of 50% MeOH before injection onto LC column. LC-MS analysis was done on a Waters SYNAPT quadrupole/time-of-flight mass spectrometer operated in positive ion electrospray mode. The column was Waters XBridge C8 column and gradient was from 20-90% MeCN/0.1% formic acid over 12 min.

[3] = Pharmacokinetics, intraperitoneal administration; format: in vivo, Swiss Webster mice; settings: for Plasma concentration, single animal / concentration at 0 h / concentration at 0.5 h / concentration at 1 h / concentration at 2 h: IP; for Plasma concentration, single animal / concentration at 0 h / concentration at 0.5 h / concentration at 1 h / concentration at 2 h / concentration at 30 min / concentration at 60 min / concentration at 120 min / plasma concentration: 100 mg/kg; for Plasma concentration, single animal: listed as 2 (8VP101)
Protocol: All the mice were weighed and dosed intraperitoneally accordingly at 100 mg/kg body weight with freshly prepared 1 or 2.
Blood was collected by submandibular puncture into 1 mL Eppendorf tubes, the plasma was separated and stored in −80 °C until used. A 25 µl of mouse plasma was transferred into 1.5 ml centrifuge tube which was spiked with 2.5 µl of internal standard (IS) working standard solution […] to get final IS contraction of 250 ng/ml and the solution was vortexed. An aliquot of 75 µl of methanol/0.15 formic acid was added and gently vortexed for 2 min. The samples then centrifuged for 20 min at 4 °C and 15000 × g. A clear supernatant (50 µl) with added 50 µl mobile phase (reconstitution solution) from each extraction was then transferred into a 250 µl autosampler vial. A 3 µl aliquot of each sample was injected for LC-MSMS analysis.
The total run time of 2 min with an injection volume of 3 μl at column temperature 40 °C were efficient to achieve accepted results.
A Shimadzu LC20AD, Ultra Performance Liquid Chromatography (UPLC) system (Shimadzu Corporation, Kyoto, Japan) equipped with Shimadzu 8040 triple quadrupole (QqQ) mass analyzer (Shimadzu Corporation, Kyoto, Japan) with an electrospray ionization source (ESI) operated in the positive charge mode for the quantification of 1 and 2.

[4] = Reactivity with GSH or N-Boc protected methyl ester of selenocysteine (LCMS); format: physicochemical; settings: up to 120 h
Protocol: Dimethyl bis(N-tert-butoxycarbonyl)-L-selenocystine was synthesized as reported previously. (N-tert-butoxycarbonyl)-L-selenocysteine methyl ester was prepared in situ[86] in methanol or phosphate buffer. Compound 2 was added to the solution of (N-tert-butoxycarbonyl)-L-selenocysteine methyl ester in either methanol or phosphate buffer and incubated for 40 min, 24 h, and 120 h under N2 gas balloon. Additional amounts of NaBH4 were added at 12 h and 96 h to maintain the reducing conditions. Aliquots taken from methanol solution at each of the time points were concentrated in vacuo, mixed with water, and extracted with ethyl acetate. The organic layer was separated, concentrated in vacuo, re-dissolved in methanol and analyzed by LCMS. Aliquots taken from the phosphate buffer solution were extracted with ethyl acetate. The resulting organic layer was separated and concentrated in vacuo. The residue was re-dissolved in methanol and analyzed by LCMS. […] No additional spots were detected by TLC as well.
Covalent TGR inhibitor TRi-1 was used as a positive control for the reaction with (N-tert-butoxycarbonyl)-L-selenocysteine methyl ester. The reactivity of TRi-1 was tested similarly as described above for compound 2.

[5] = tested on: adult worms; parameters: method as in PMID 15013742; settings: overnight exposure followed by 8 days culture; cited from earlier work
[6] = tested on: S. mansoni juvenile worms; parameters: method as in PMID 15013742; settings: cited from earlier work
[7] = tested on: adult worms in mice; parameters: method as in PMID 15013742; settings: cited from earlier work

CCc1ccccc1-c1nc(CN[C@@H]2C[C@@H]3C[C@H]([C@H]2C)C3(C)C)c(C)o1 [Compound 2]
plasma concentration, individual animals (Animal 1, Animal 2) ([1]; PO 200 mg/kg, 0.5 Hour): 0.255 ug/mL and 0.704 uM
plasma concentration, individual animals (Animal 1, Animal 2) ([1]; PO 200 mg/kg, 1 Hour): 0.273 ug/mL and 0.767 uM
plasma concentration, individual animals (Animal 1, Animal 2) ([1]; PO 200 mg/kg, 2 Hour): 0.135 ug/mL and 0.409 uM
concentration at 30 min ([1]; Plasma concentration, mice, oral gavage, 30 min): 714 nM and 252 ng/mL
concentration at 60 min ([1]; Plasma concentration, mice, oral gavage, 60 min): 771 nM and 272 ng/mL
concentration at 120 min ([1]; Plasma concentration, mice, oral gavage, 120 min): 396 nM and 140 ng/mL
concentration at 0.5 h ([1]; plasma concentration, Average, PO 200 mg/kg, 0.5 Hour): 252 ng/mL
concentration at 1 h ([1]; plasma concentration, Average, PO 200 mg/kg, 1 Hour): 272 ng/mL
concentration at 2 h ([1]; plasma concentration, Average, PO 200 mg/kg, 2 Hour): 140 ng/mL
concentration at 0.5 h ([1]; plasma concentration, individual animals (Animal 1, Animal 2), PO 200 mg/kg, 0.5 Hour): 724 nM and 248 ng/mL
concentration at 1 h ([1]; plasma concentration, individual animals (Animal 1, Animal 2), PO 200 mg/kg, 1 Hour): 774 nM and 270 ng/mL
concentration at 2 h ([1]; plasma concentration, individual animals (Animal 1, Animal 2), PO 200 mg/kg, 2 Hour): 383 nM and 144 ng/mL
concentration at 30 min ([1]; plasma concentration, mice, 200 mg/kg p.o., 30 min): 0.71 µM
concentration at 60 min ([1]; plasma concentration, mice, 200 mg/kg p.o., 60 min): 0.77 µM
concentration at 120 min ([1]; plasma concentration, mice, 200 mg/kg p.o., 120 min): 0.4 µM
plasma concentration ([1]; mice, 200 mg/kg p.o., 30 min): 0.714 µM
plasma concentration ([1]; mice, 200 mg/kg p.o., 60 min): 0.771 µM
plasma concentration ([1]; mice, 200 mg/kg p.o., 120 min): 0.396 µM
maximum plasma concentration ([1]; mice, PO 200 mg/kg): 0.77 µM
formation of derivatives under biochemical assay conditions [2]: No additional ions except for those corresponding to 2 were detected; also recorded: no formation of derivatives
Plasma concentration, single animal ([3]; 0 Hour): 0.000 uM (2×) and 0.000 ug/mL (2×)
Plasma concentration, single animal ([3]; 0.5 Hour): 4.991 uM and 5.302 uM and 1.758 ug/mL and 1.868 ug/mL
Plasma concentration, single animal ([3]; 1 Hour): 4.630 uM and 3.814 uM and 1.631 ug/mL and 1.343 ug/mL
Plasma concentration, single animal ([3]; 2 Hour): 3.386 uM and 3.401 uM and 1.193 ug/mL and 1.198 ug/mL
concentration at 0 h ([3]; male, Swiss Webster, mouse, plasma, ip, 0 Hour, read-out: Plasma concentration, Average): 0 nM and 0 ng/mL
concentration at 0 h ([3]; male, Swiss Webster, mouse, plasma, ip, 0 Hour, read-out: Plasma concentration, single animal): 0 nM and 0 ng/mL
concentration at 0.5 h ([3]; male, Swiss Webster, mouse, plasma, ip, 0.5 Hour, read-out: Plasma concentration, Average): 4.8 µM and 1690 ng/mL
concentration at 0.5 h ([3]; male, Swiss Webster, mouse, plasma, ip, 0.5 Hour, read-out: Plasma concentration, single animal): 4.12 µM and 1450 ng/mL
concentration at 1 h ([3]; male, Swiss Webster, mouse, plasma, ip, 1 Hour, read-out: Plasma concentration, Average): 3.91 µM and 1520 ng/mL
concentration at 1 h ([3]; male, Swiss Webster, mouse, plasma, ip, 1 Hour, read-out: Plasma concentration, single animal): 3.29 µM and 1600 ng/mL
concentration at 2 h ([3]; male, Swiss Webster, mouse, plasma, ip, 2 Hour, read-out: Plasma concentration, Average): 3.06 µM and 1080 ng/mL
concentration at 2 h ([3]; male, Swiss Webster, mouse, plasma, ip, 2 Hour, read-out: Plasma concentration, single animal): 2.39 µM and 846 ng/mL
concentration at 30 min ([3]; male, Swiss Webster, mouse, plasma, ip, mice, 100 mg/kg i.p., 30 min): 4.8 ± 0.612 µM
concentration at 60 min ([3]; male, Swiss Webster, mouse, plasma, ip, mice, 100 mg/kg i.p., 60 min): 3.91 ± 0.674 µM
concentration at 120 min ([3]; male, Swiss Webster, mouse, plasma, ip, mice, 100 mg/kg i.p., 120 min): 3.06 ± 0.578 µM
concentration at 30 min ([3]; male, Swiss Webster, mouse, plasma, ip, mice, intraperitoneal, 30 min): 1690 ± 216 ng/mL
concentration at 60 min ([3]; male, Swiss Webster, mouse, plasma, ip, mice, intraperitoneal, 60 min): 1520 ± 158 ng/mL
concentration at 120 min ([3]; male, Swiss Webster, mouse, plasma, ip, mice, intraperitoneal, 120 min): 1080 ± 202 ng/mL
Cmax ([3]; male, Swiss Webster, mouse, plasma, ip, mice, 100 mg/kg i.p., at 30 min): 4.8 µM
half-life ([3]; male, Swiss Webster, mouse, plasma, ip, mice, 100 mg/kg i.p., estimated from the time points available): ~1.5 h
overt toxicity ([3]; mice, 100 mg/kg i.p.): no overt toxicity
plasma concentration ([3]; mice, 100 mg/kg i.p., 30 min): 4.8 µM
plasma concentration ([3]; mice, 100 mg/kg i.p., 60 min): 3.9 µM
plasma concentration ([3]; mice, 100 mg/kg i.p., 120 min): 3.0 µM
reaction with thiol or selenol groups in GSH or protected selenocysteine [4]: No additional peaks were detected; also recorded: no reaction

O=C(C1CCCCC1)N1CC(=O)N2CCc3ccccc3C2C1 (stereo not shown) [PZQ, praziquantel]
LD50 against adult worms, female [5]: 5.1 µM
LD50 against adult worms, male [5]: 1.5 µM
LD50 of PZQ against ex vivo S. mansoni juvenile worms [6]: 413 µM
ED50 against adult worms in mice [7]: 80 mg/kg
